Results: patent publication US20080045507A1, “SUBSTITUTED BENZAMIDE MODULATORS OF THE HISTAMINE H3 RECEPTOR” (priority 2006, published 2008)

Key:
rat H3 receptor [1] = biological target: T1, rat H3 receptor (Rattus norvegicus, UniProt Q9QYN8); experiment: H3 receptor binding, cloned rat H3 receptor stably expressed in SK-N-MC cells; details: average of results
T1 construct: expressed in transfected cells
Experimental: (§1) Binding of compounds to the cloned human and rat H3 receptors, stably expressed in SK-N-MC cells, was performed as described by Barbier, A. J. et al. (Br. J. Pharmacol. 2004, 143(5), 649-661). Data for compounds tested in these assays are presented in Table 1 (human) and Table 2 (rat), as an average of the results obtained.

human H3 receptor [2] = biological target: T2, human H3 receptor (Homo sapiens, UniProt Q9Y5N1); experiment: Cyclic AMP accumulation, SK-N-MC subline with reporter construct and human H3 receptor; assay type: cell-based; details: cAMP accumulation, SK-N-MC reporter cells expressing human H3; average of results; read-out: Human pA2 (converted)
T2 construct: expressed in transfected cells
Text: (§2) Sublines of SK-N-MC cells were created that expressed a reporter construct and either the human or rat H3 receptor. The pA2 values were obtained as described by Barbier et al. (2004). Data for compounds tested in these assays are presented in Table 3, as an average of the results obtained (NT=not tested).

rat H3 receptor [3] = biological target: T1, rat H3 receptor; experiment: Cyclic AMP accumulation, SK-N-MC subline with reporter construct and rat H3 receptor; assay type: cell-based; details: cAMP accumulation, SK-N-MC reporter cells expressing rat H3; average of results; read-out: Rat pA2 (converted)
Text: as §2

human H3 receptor [4] = biological target: T2, human H3 receptor; experiment: H3 receptor binding, cloned human H3 receptor stably expressed in SK-N-MC cells; details: average of results
Experimental: as §1

T1 sequence (Q9QYN8 whole entry): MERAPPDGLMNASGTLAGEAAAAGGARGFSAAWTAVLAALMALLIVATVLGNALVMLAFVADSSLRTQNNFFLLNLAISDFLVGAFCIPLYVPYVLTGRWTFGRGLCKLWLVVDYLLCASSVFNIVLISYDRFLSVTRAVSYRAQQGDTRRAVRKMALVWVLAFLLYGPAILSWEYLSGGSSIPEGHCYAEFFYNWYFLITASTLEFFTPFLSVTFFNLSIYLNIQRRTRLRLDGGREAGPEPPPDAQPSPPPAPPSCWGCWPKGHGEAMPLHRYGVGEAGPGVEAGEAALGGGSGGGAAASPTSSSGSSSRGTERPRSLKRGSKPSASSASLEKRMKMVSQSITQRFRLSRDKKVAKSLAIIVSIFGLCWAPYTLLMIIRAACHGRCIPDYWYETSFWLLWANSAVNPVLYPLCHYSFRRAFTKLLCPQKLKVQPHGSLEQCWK
T2 sequence (Q9Y5N1 whole entry): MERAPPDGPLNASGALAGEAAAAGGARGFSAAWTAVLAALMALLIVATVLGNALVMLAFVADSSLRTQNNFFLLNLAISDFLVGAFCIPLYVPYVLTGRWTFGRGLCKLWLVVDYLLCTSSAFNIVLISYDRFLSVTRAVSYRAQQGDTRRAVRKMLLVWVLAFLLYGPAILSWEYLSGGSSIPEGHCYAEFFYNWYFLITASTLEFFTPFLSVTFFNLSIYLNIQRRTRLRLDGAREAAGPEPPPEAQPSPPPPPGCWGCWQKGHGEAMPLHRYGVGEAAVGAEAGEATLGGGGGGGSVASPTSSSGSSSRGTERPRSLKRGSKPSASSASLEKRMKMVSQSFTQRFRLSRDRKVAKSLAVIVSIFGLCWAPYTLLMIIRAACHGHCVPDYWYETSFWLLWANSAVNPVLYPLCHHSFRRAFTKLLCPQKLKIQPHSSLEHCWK

Ki (rat H3 receptor [1]) [nM] | Kb (human H3 receptor [2]) [nM] | Kb (rat H3 receptor [3]) [nM] | Ki (human H3 receptor [4]) [nM] | SMILES
28 | 0.417 | 1.51 | 2 | O=C(c1ccc(C(O)c2ccccc2)cc1)N1CCCN(C2CC2)CC1 (stereo not drawn) [Example 30, (4-Cyclopropyl-[1,4]diazepan-1-yl)-[4-(hydroxy-phenyl-methyl)-phenyl]-methanone]
 | 0.182 | 3.31 | 1 | CCC(O)c1ccc(C(=O)N2CCCN(C3CCC3)CC2)cc1 (stereo not drawn) [Example 19, (4-Cyclobutyl-[1,4]diazepan-1-yl)-[4-(1-hydroxy-propyl)-phenyl]-methanone]
509 |  |  | 9 | CCC(O)c1ccc(C(=O)N2CCCN(C(C)C)CC2)cc1 (stereo not drawn) [Example 10, [4-(1-Hydroxy-propyl)-phenyl]-(4-isopropyl-[1,4]diazepan-1-yl)-methanone]
 | 0.794 | 12 | 3 | CC(C)C(O)c1ccc(C(=O)N2CCCN(C3CC3)CC2)cc1 (stereo not drawn) [Example 32, (4-Cyclopropyl-[1,4]diazepan-1-yl)-[4-(1-hydroxy-2-methyl-propyl)-phenyl]-methanone]
37 | 0.955 | 6.92 | 1 | O=C(c1ccc(C(O)C2CCCCC2)cc1)N1CCCN(C2CC2)CC1 (stereo not drawn) [Example 27, [4-(Cyclohexyl-hydroxy-methyl)-phenyl]-(4-cyclopropyl-[1,4]diazepan-1-yl)-methanone]

The next lines start with the compound.

SMILES | Ki (rat H3 receptor [1]) [nM] | Kb (human H3 receptor [2]) [nM] | Kb (rat H3 receptor [3]) [nM] | Ki (human H3 receptor [4]) [nM]
CC(C)(C)c1ccc(C(=O)N2CCN(C3CCC3)CC2)cc1 [Example 33, (4-tert-Butyl-phenyl)-(4-cyclobutyl-piperazin-1-yl)-methanone] | 152 | 3.63 | 13.5 | 5
CC(C)N1CCN(C(=O)c2ccc(CO)cc2)CC1 [Example 6, (4-Hydroxymethyl-phenyl)-(4-isopropyl-piperazin-1-yl)-methanone] |  |  | 295 | 164
O=C(c1ccc(C2CCCCC2)cc1)N1CCN(C2CCC2)CC1 [Example 36, (4-Cyclobutyl-piperazin-1-yl)-(4-cyclohexyl-phenyl)-methanone] | 79 |  |  | 9
CC(C)N1CCCN(C(=O)c2ccc(C(O)c3ccccc3)cc2)CC1 (stereo not drawn) [Example 11, [4-(Hydroxy-phenyl-methyl)-phenyl]-(4-isopropyl-[1,4]diazepan-1-yl)-methanone] | 78 |  |  | 2
O=C(c1ccc(C(=O)N2CCCN(C3CC3)CC2)cc1)C1CCCCC1 [Example 29, (4-Cyclohexanecarbonyl-phenyl)-(4-cyclopropyl-[1,4]diazepan-1-yl)-methanone] |  | 0.912 | 6.92 | 1
CC(C)N1CCCN(C(=O)c2ccc(C(O)C3CCCCC3)cc2)CC1 (stereo not drawn) [Example 7, [4-(Cyclohexyl-hydroxy-methyl)-phenyl]-(4-isopropyl-[1,4]diazepan-1-yl)-methanone] | 75 | 0.871 | 17.4 | 2
